Assay results reported in patent US9308244B2, “Combination therapy using active immunotherapy” (immatics Biotechnologies GmbH, priority 2007, dated 2016).
Entries after “also recorded” stand apart in the source; their conditions may differ.

Columns and labels:
[1] = tested on: primary clear cell renal cell carcinoma (ccRCC); assay: mRNA expression in primary ccRCC tumor tissue of a patient treated with sorafenib before surgery; type: in vivo, human
Protocol: mRNA expression was measured as described in 1.1 except that mRNA from 20 primary clear cell renal cell carcinoma (ccRCC) samples of patients not treated with TKIs and 1 locally recurring ccRCC tumor sample of a patient having received sorafenib treatment (800 mg Nexavar™ per day starting 35 days before and stopping 2 days before surgery) previous to surgery were included in this analysis.
Tumor tissue specimens were snap-frozen in liquid nitrogen immediately after surgery and later homogenized with mortar and pestle under liquid nitrogen. Total RNA was prepared from these samples using TRIzol (Invitrogen) or TRI Reagent (Fermentas) followed by a cleanup with RNeasy (QIAGEN); both methods were performed according to the manufacturers' protocols.
Gene expression analysis of the tumor samples was performed by Affymetrix Human Genome (HG) U133A or HG-U133 Plus 2.0 oligonucleotide microarrays (Affymetrix, Santa Clara, Calif., USA). A normal reference kidney sample was hybridized to both array types to achieve direct comparability of all samples.
Briefly, double-stranded cDNA was synthesized from 5-8 μg of total RNA, using SuperScript RTII (Invitrogen) and the oligo-dT-T7 primer (MWG Biotech, Ebersberg, Germany) as described in the manual. […] Pairwise comparisons were calculated using the respective normal reference kidney array as baseline. […] Relative expression values were calculated from the signal log ratios given by the software and the normal kidney sample was arbitrarily set to 1.0.

[2] = tested on: human CD8+ T-cells; assay: Artificial APC (pMHC/anti-CD28 bead) priming and expansion of isolated human CD8+ T-cells, MLA-001 tetramer readout; type: cell-based; conditions: three stimulation cycles, high and low density pMHC, absence of natural antigen presenting cells
[3] = tested on: HLA-A*02+ PBMCs (CD4+ and CD8+ effector cells); conditions: absence of target cells or autologous target cells
Protocol: Two fresh buffy coat (HLA-A*02+ and HLA-A*02−) were obtained from the Katharinenhospital Stuttgart. PBMCs were isolated by standard density gradient isolation and incubated overnight in T-cell medium (TCM) for human in vitro priming as in WP03 #4. Ca2+ and Mg2+ free PBS (Cambrex) washed HLA-A*02+ PBMCs were labeled at 1×10^7 cells/ml with 1 μM CFSE (Fluka, Buchs, Germany) at 37° C. for 4 minutes. Labeling was stopped by adding the same volume heat inactivated FCS (Invitrogen) and labeled cells were washed in TCM. Irradiation of target or feeder cells, if indicated, was performed at 33 Gy using a 1000 Elite gammacell (MDS Nordion, Ottawa, Canada). Stock solutions of sorafenib tosylate and sunitinib malate were prepared in DMSO (Merck, Darmstadt, Germany) and frozen aliquoted at −80° C. Mixed lymphocyte reactions were performed by coculturing 2×10^5 CFSE labeled effector plus 2×10^5 irradiated target cells as indicated per well of 96 well round bottom plates in 200 μl TCM in the presence of indicated concentrations of sorafenib, sunitinib or DMSO at 37° C. and 5% CO2 (day 1). On day 4, 100 μl supernatant was removed and 100 μl TCM supplemented with the original concentration of TKIs was added. […] Cells were washed, fixed in PFEA containing 1% formaldehyde (Fluka) and analyzed on a FACSCalibur (BD). […]

[4] = tested on: OVA-001 specific CD8+ T-cells; type: in vivo, C57BL/6 mice
[5] = tested on: CD4+ CD25+ Tregs, T cells, B cells, splenocytes; assay: Immune cell populations in spleen and PBMCs of TKI-treated mice; type: in vivo, C57BL/6 mice; conditions: 4 weeks treatment
[6] = mouse, in vivo
Protocol: Female C57BL/6 mice (20-25 g, Harlan Winkelmann GmbH, Borchen, Germany) were used for all experiments described in this section. Animals were kept in the animal facility of the Dept. of Immunology at the University of Tuebingen. Animals were cared for by trained animal keepers and health status of animals was supervised by the veterinaries of the University of Tübingen. Feeding with drug was also performed in part by the local animal keepers after special training. All animals were supplied with water and food ad libitum. The described experiments were performed according to procedure no. IM1/06 approved by the Regierungsprasidium Tuebingen.
A liquid, viscous vehicle composed of 30% (w/v) Cremophor EL (Sigma, Deisenhofen, Germany), 30% (w/v) PEG 400 (Sigma, Deisenhofen, Germany), 10% ethanol p.a., 10% glucose was used. Sunitinib and sorafenib were suspended in vehicle according to the planned dosages in a way that […] body weight had to be applied to all mice, according to approx. 50 μl of suspension. Feasible aliquots were prepared from suspensions and from vehicle and stored until use at −20° C. in the dark. Thawed substance was stored at 4° C. and used within the next three days. Animals were weighed before start of treatment and thereafter weekly. The deduced dosage was applied daily using a 1 ml syringe with gavage into the backward cavity of the mouth of the animal without anesthesia. Drug delivery into blood plasma was controlled as described in example 1.
1) Immunization under continuous treatment with tyrosine kinase inhibitors. Pretreatment phase was two weeks (see FIG. 5A). […]
3) The experimental design was identical to a) Beside negative and positive control groups, groups treated with 60 mg/kg body weight sorafenib, and 20 and 40 mg/kg body weight sunitinib were included (6 mice per group). For spleen cells, CD4, Tregs, CD8 cells, and B cells were assessed, for PBMCs CD4, CD8, B cells and Tregs were analyzed.

[7] = HPLC quantification of TKI plasma levels in mouse models; type: in vivo; conditions: oral dosing
Protocol: The proteins were precipitated with 40 μl 100% acetonitril (Acros, Geel, Belgium), centrifuged and filtered through a 0.2 μm PVDF filter. 10 μl was directly injected to the HPLC system.
The HPLC system consisted of a Binary HPLC pump (Shimadzu LC10aVP), a Shimadzu SIL-10aVP autosampler, a Shimadzu CTO-10asVP column oven and a Shimadzu SPD10aVP detector. Data acquisition and analysis was performed using the Shimadzu Class-VP 7.3 software. Chromatographic separation was carried out on a reverse phase C18 column (Reprosil Pur ODS-3μ, 60×2 mm). To protect the analytical column a guard column has been used (Reprosil Pur ODS-5μ, 10×2 mm). Eluent A consisted of water (LCMS grade, Acros, Geel, Belgium), modified by 0.1% formic acid (Merck, Darmstadt, Germany) and eluent B was 80% acetonitril (Acros, Geel, Belgium) with 0.1% formic acid (Merck, Darmstadt, Germany).
The following gradient was used: 5 min 25% eluent B, 15 min 62.5% eluent B, 6 min 80% eluent B and 5 min 80% eluent B. The temperature of the autosampler was kept at 4° C. The temperature of the column was maintained at 30° C. The detection wavelength was set at 400 nm, the injection volume was 10 μl. The column was equilibrated with the mobile phase at a flow rate 0.5 ml/min.
For Sorafenib analysis, 10 μl of 50% acetonitril (Acros, Geel, Belgium) was added to 50 serum or medium in 0.5 ml PCR tubes and mixed for 10 seconds. […]

[8] = RCC of one patient, 800 mg Nexavar per day from 35 to 2 days before surgery, normal kidney = 1.0
[9] = RCC of one patient, 800 mg Nexavar per day from 35 to 2 days before surgery, normal kidney = 1.0, listed as sorafenib

CNC(=O)c1cc(Oc2ccc(NC(=O)Nc3ccc(Cl)c(C(F)(F)F)c3)cc2)ccn1 [Sorafenib, 4-(4-{3-[4-Chloro-3-(trifluoromethyl)phenyl]ureido}phenoxy)-N-methylpyrid-ine-2-carboxamide]
Expression relative to normal reference kidney: ADFP [1, 8]: 5.7 | Expression relative to normal reference kidney: APOL1 [1, 8]: 19.7 | Expression relative to normal reference kidney: CCND1 [1, 8]: 3.2 | Expression relative to normal reference kidney: GUCY1A3 [1, 8]: 0.5 | Expression relative to normal reference kidney: HLA-A [1, 8]: 0.9 | Expression relative to normal reference kidney: HLA-B [1, 8]: 2.1 | Expression relative to normal reference kidney: HLA-C [1, 8]: 1.0 | Expression relative to normal reference kidney: HLA-DPB1 [1, 8]: 4.0 | Expression relative to normal reference kidney: HLA-DQB1 [1, 8]: 168.9 | Expression relative to normal reference kidney: HLA-DRB1 [1, 8]: 2.8 | Expression relative to normal reference kidney: KIAA0367 [1, 8]: 1.2 | Expression relative to normal reference kidney: MET [1, 8]: 9.8 | Expression relative to normal reference kidney: MMP7 [1, 8]: 6.1 | Expression relative to normal reference kidney: MUC1 [1, 8]: 0.3 | Expression relative to normal reference kidney: PSMB8 [1, 8]: 3.5 | Expression relative to normal reference kidney: PSMB9 [1, 8]: 5.7 | Expression relative to normal reference kidney: RGS5 [1, 8]: 1.5 | Expression relative to normal reference kidney: TAP1 [1, 8]: 2.1 | Expression relative to normal reference kidney: GUCY1A3 [1, 9]: at the lower boundary of the range | Expression relative to normal reference kidney: RGS5 [1, 9]: at the lower boundary of the range | Expression profile of tumor associated antigens or their HLA presentation in vivo vs range of untreated ccRCC (in words) ([1]; one sorafenib-treated patient vs 20 untreated ccRCC, range = mean ± one standard deviation): lie within this range for most antigens; also recorded: do not provide any evidence for a potential influence | Priming and expansion of MLA-001 specific CD8+ T-cells (% tetramer+ among CD8+ lymphocytes, total number per well) [2]: no concentration-dependent influence; also recorded: not altered | Baseline proliferation of effector cells [3]: did not increase | Reversibility of the immunosuppressive influence after discontinuation of treatment ([4]; mouse, in vivo): rapidly reversed | Numbers of OVA-001-specific T-cells ([4]; treatment stopped 48 h before first immunization, 80 mg/kg bw sunitinib, both sorafenib dosages, differences not significant): Reduced numbers | Number of CD4+ CD25+ Tregs among total CD4+ cells in PBMCs [5]: unchanged or even slightly elevated | Toxic side effects [6]: without any observed toxic side effects | Bioavailability / plasma levels at the used doses [7]: confirmed to reach plasma levels shown by others to be effective in tumor growth inhibition
